Usually melting point stands for the temperature, or range, at which the solid turns liquid.

In turn, `Cc1cc(-c2cnn3c(C(F)(F)F)cc(-c4ccc(C)c(C(F)(F)F)c4)nc23)cc(C)n1` [Example 4.28, 5-(4-Methyl-3-trifluoromethyl-phenyl)-3-(2,6-dimethyl-pyridin-4-yl)-7-trifluoromethyl-pyrazolo[1,5-a]pyrimidine] yielded a melting point of 258 °C. Take `Cc1cc(-c2cnn3c(C(F)(F)F)cc(-c4ccc(F)c(Cl)c4)nc23)cc(C)n1` [Example 4.21, 5-(3-Chloro-4-fluoro-phenyl)-3-(2,6-dimethyl-pyridin-4-yl)-7-trifluoromethyl-pyrazolo[1,5-a]pyrimidine]: the melting point was determined as 271 °C. `Cc1cc(-c2cnn3c(C(F)(F)F)cc(-c4ccc(Cl)c(C)c4)nc23)ccn1` [Example 4.30, 5-(4-Chloro-3-methyl-phenyl)-3-(2-methyl-pyridin-4-yl)-7-trifluoromethyl-pyrazolo[1,5-a]pyrimidine] gave a melting point of 240 °C. As for `Cc1cc(-c2cc(C(F)F)n3ncc(-c4ccncc4)c3n2)ccc1C(F)(F)F` [Example 9.3, 7-Difluoromethyl-5-(3-methyl-4-trifluoromethyl-phenyl)-3-pyridin-4-yl-pyrazolo[1,5-a]pyrimidine], the melting point worked out at 236 °C. For the compound `FC(F)(F)c1ccc(-c2cc(C(F)(F)F)n3cnc(-c4cccnc4)c3n2)cc1` [Example 8.6, 8-Pyridin-3-yl-4-trifluoromethyl-2-(4-trifluoromethyl-phenyl)-imidazo[1,5-a]pyrimidine], the melting point was 231 °C. `Cc1nn2c(C(F)(F)F)cc(-c3ccc(Cl)cc3)nc2c1C#N` [Example 2.3, 5-(4-Chloro-phenyl)-2-methyl-7-trifluoromethyl-pyrazolo[1,5-a]pyrimidine-3-carbonitrile] showed a melting point of 238 °C. As for `N#Cc1ncn2c(C(F)(F)F)cc(-c3ccc(OCC(F)(F)F)c(C(F)(F)F)c3)nc12` [Example 5.24, 2-(4-Trifluoroethoxy-3-trifluoromethyl-phenyl)-4-trifluoromethyl-imidazo[1,5-a]pyrimidine-8-carbonitrile], the melting point amounted to 189 °C. Compound `N#Cc1ncn2c(C(F)(F)F)cc(-c3ccccn3)nc12` [Example 5.25, 2-Pyridin-2-yl-4-trifluoromethyl-imidazo[1,5-a]pyrimidine-8-carbonitrile] registered a melting point of 205 °C. Compound `N#Cc1cnn2c(C(F)(F)F)cc(-c3ccc(F)c(Cl)c3)nc12` [Example 1.14, 5-(3-Chloro-4-fluoro-phenyl)-7-trifluoromethyl-pyrazolo[1,5-a]pyrimidine-3-carbonitrile] registered a melting point of 190 °C. `N#Cc1cnn2c(C(F)(F)F)cc(-c3ccncc3)nc12` [Example 1.22, 5-Pyridin-4-yl-7-trifluoromethyl-pyrazolo[1,5-a]pyrimidine-3-carbonitrile] returned a melting point of 233 °C.

`CCOc1cc(-c2cc(C(F)(F)F)n3ncc(-c4cc(C)nc(C)c4)c3n2)ccc1C(F)(F)F` [Example 4.48, 3-(2,6-Dimethyl-pyridin-4-yl)-5-(3-ethoxy-4-trifluoromethyl-phenyl)-7-trifluoromethyl-pyrazolo[1,5-a]pyrimidine] returned a melting point of 257 °C. `Fc1ccc(-c2cc(C(F)(F)F)n3ncc(-c4ccccn4)c3n2)cc1Cl` [Example 4.8, 5-(3-Chloro-4-fluoro-phenyl)-3-pyridin-2-yl-7-trifluoromethyl-pyrazolo[1,5-a]pyrimidine]: the melting point was 197 °C.

In the case of `N#Cc1ncn2c(C(F)(F)F)cc(-c3ccncc3)nc12` [Example 5.27, 2-Pyridin-4-yl-4-trifluoromethyl-imidazo[1,5-a]pyrimidine-8-carbonitrile], the melting point amounted to 254 °C. With `FC(F)(F)COc1ccc(-c2cc(C(F)(F)F)n3cnc(-c4ccncc4)c3n2)cc1C(F)(F)F` [Example 8.18, 8-Pyridin-4-yl-2-[4-(2,2,2-trifluoro-ethoxy)-3-trifluoromethyl-phenyl]-4-trifluoromethyl-imidazo[1,5-a]pyrimidine], the melting point worked out at 269 °C. Take `Cc1cc(-c2cnn3c(C(F)(F)F)cc(-c4ccc(Cl)cc4)nc23)ccn1` [Example 4.29, 5-(4-Chloro-phenyl)-3-(2-methyl-pyridin-4-yl)-7-trifluoromethyl-pyrazolo[1,5-a]pyrimidine]: the melting point is 220 °C. In turn, `Cc1cc(-c2cnn3c(C(F)F)cc(-c4ccc(C(F)(F)F)c(C)c4)nc23)ccn1` [Example 9.4, 7-Difluoromethyl-3-(2-methyl-pyridin-4-yl)-5-(3-methyl-4-trifluoromethyl-phenyl)-pyrazolo[1,5-a]pyrimidine] registered a melting point of 221 °C. In the case of `Cc1cc(-c2cc(C(F)(F)F)n3cnc(C#N)c3n2)ccc1C(F)(F)F` [Example 5.23, 2-(3-Methyl-4-trifluoromethyl-phenyl)-4-trifluoromethyl-imidazo[1,5-a]pyrimidine-8-carbonitrile], the melting point amounted to 217 °C.

Regarding `Cc1ccc(-c2cc(C(F)(F)F)n3cnc(C#N)c3n2)cc1C(F)(F)F` [Example 5.22, 2-(4-Methyl-3-trifluoromethyl-phenyl)-4-trifluoromethyl-imidazo[1,5-a]pyrimidine-8-carbonitrile], the melting point was determined as 220 °C. `Cc1cc(-c2cnn3c(C(F)(F)F)cc(-c4ccc(C(F)(F)F)c(C)c4)nc23)ccn1` [Example 4.39, 5-(3-Methyl-4-trifluoromethyl-phenyl)-3-(2-methyl-pyridin-4-yl)-7-trifluoromethyl-pyrazolo[1,5-a]pyrimidine] came in with a melting point of 237 °C. As for `N#Cc1cnn2c(C(F)(F)F)cc(-c3ccccc3Cl)nc12` [Example 1.3, 5-(2-Chloro-phenyl)-7-trifluoromethyl-pyrazolo[1,5-a]pyrimidine-3-carbonitrile], the melting point was determined as 169 °C. Next, `Cc1cc(-c2ncn3c(C(F)(F)F)cc(-c4ccc(Cl)cc4)nc23)ccn1` [Example 8.20, 2-(4-Chloro-phenyl)-8-(2-methyl-pyridin-4-yl)-4-trifluoromethyl-imidazo[1,5-a]pyrimidine]: 232 °C; `Cc1ccc(-c2cc(C(F)(F)F)n3cnc(C#N)c3n2)cc1` [Example 5.4, 2-(4-Methyl-phenyl)-4-trifluoromethyl-imidazo[1,5-a]pyrimidine-8-carbonitrile]: 197 °C; `N#Cc1cnn2c(C(F)(F)F)cc(-c3cccc(F)c3)nc12` [Example 1.8, 5-(3-Fluoro-phenyl)-7-trifluoromethyl-pyrazolo[1,5-a]pyrimidine-3-carbonitrile]: 199 °C. The same measure for `FC(F)(F)c1ccc(-c2cc(C(F)(F)F)n3ncc(-c4cccnc4)c3n2)cc1` [Example 4.14, 5-(4-Trifluoromethyl-phenyl)-3-pyridin-3-yl-7-trifluoromethyl-pyrazolo[1,5-a]pyrimidine]: 163 °C; for `Cc1cccc(-c2cc(C(F)(F)F)n3ncc(C#N)c3n2)c1` [Example 1.5, 5-(3-Methyl-phenyl)-7-trifluoromethyl-pyrazolo[1,5-a]pyrimidine-3-carbonitrile]: 202 °C. Regarding `FC(F)(F)c1cccc(-c2cc(C(F)(F)F)n3ncc(-c4cccnc4)c3n2)c1` [Example 4.13, 5-(3-Trifluoromethyl-phenyl)-3-pyridin-3-yl-7-trifluoromethyl-pyrazolo[1,5-a]pyrimidine], the melting point was 171 °C. `FC(F)(F)c1cc(-c2ccc(Cl)cc2)nc2c(-c3ccncc3)ncn12` [Example 8.9, 2-(4-Chloro-phenyl)-8-pyridin-4-yl-4-trifluoromethyl-imidazo[1,5-a]pyrimidine] registered a melting point of 290 °C.

For `Cc1cc(-c2ncn3c(C(F)(F)F)cc(-c4ccc(C(F)(F)F)c(C(F)(F)F)c4)nc23)ccn1` [Example 8.35, 2-(3,4-Bis-trifluoromethyl-phenyl)-8-(2-methyl-pyridin-4-yl)-4-trifluoromethyl-imidazo[1,5-a]pyrimidine], the melting point is 218 °C. Take `N#Cc1cnn2c(C(F)(F)F)cc(-c3ccc(C(F)(F)F)c(F)c3)nc12` [Example 1.17, 5-(3-Fluoro-4-trifluoromethyl-phenyl)-7-trifluoromethyl-pyrazolo[1,5-a]pyrimidine-3-carbonitrile]: the melting point came to 184 °C.

`CCOc1ccc(-c2cc(C(F)(F)F)n3cnc(-c4ccncc4)c3n2)cc1C(F)(F)F` [Example 8.17, 2-(4-Ethoxy-3-trifluoromethyl-phenyl)-8-pyridin-4-yl-4-trifluoromethyl-imidazo[1,5-a]pyrimidine] returned a melting point of 244 °C. The compound `CCOc1ccc(-c2cc(C(F)(F)F)n3ncc(-c4ccnc(C)c4)c3n2)cc1C(F)(F)F` [Example 4.44, 5-(4-Ethoxy-3-trifluoromethyl-phenyl)-3-(2-methyl-pyridin-4-yl)-7-trifluoromethyl-pyrazolo[1,5-a]pyrimidine] yielded a melting point of 250 °C. Next, `N#Cc1ncn2c(C(F)(F)F)cc(-c3cccnc3)nc12` [Example 5.26, 2-Pyridin-3-yl-4-trifluoromethyl-imidazo[1,5-a]pyrimidine-8-carbonitrile]: 222 °C; `N#Cc1cnn2c(C(F)(F)F)cc(-c3ccc(F)cc3)nc12` [Example 1.9, 5-(4-Fluoro-phenyl)-7-trifluoromethyl-pyrazolo[1,5-a]pyrimidine-3-carbonitrile]: 198 °C. `Cc1cc(-c2cnn3c(C(F)F)cc(-c4ccc(C(F)(F)F)cc4)nc23)ccn1` [Example 9.2, 7-Difluoromethyl-3-(2-methyl-pyridin-4-yl)-5-(4-trifluoromethyl-phenyl)-pyrazolo[1,5-a]pyrimidine] yielded a melting point of 213 °C. The compound `Cc1cc(-c2cc(C(F)(F)F)n3ncc(-c4ccncc4)c3n2)ccc1C(F)(F)F` [Example 4.37, 5-(3-Methyl-4-trifluoromethyl-phenyl)-3-pyridin-4-yl-7-trifluoromethyl-pyrazolo[1,5-a]pyrimidine] came in with a melting point of 227 °C. `Cc1cc(-c2cnn3c(C(F)(F)F)cc(-c4ccc(C(F)(F)F)c(C)c4)nc23)cc(C)n1` [Example 4.38, 5-(3-Methyl-4-trifluoromethyl-phenyl)-3-(2,6-dimethyl-pyridin-4-yl)-7-trifluoromethyl-pyrazolo[1,5-a]pyrimidine] returned a melting point of 253 °C.
